Assay results reported in ChEMBL document CHEMBL1122436, “Structure-activity studies of dermorphin. Synthesis and some pharmacological data of dermorphin and its 1-substituted analogues” (J Med Chem, 1983).
pIC50: −log10 of the molar value.

Assays:
Format in all cases: functional
[1] = species: Cavia porcellus; assay: Inhibition of electrically evoked twitches in guinea pig ileum relative to morphine.
[2] = species: Mus musculus; assay: Analgesic activity in mice by using hot plate method
[3] = species: Cavia porcellus; assay: Inhibition of twitches in guinea pig ileum

## C[C@@H](NC(=O)[C@H](N)Cc1ccccc1)C(=O)N[C@@H](Cc1ccccc1)C(=O)NCC(=O)N[C@@H](Cc1ccc(O)cc1)C(=O)N1CCC[C@H]1C(=O)N[C@@H](CO)C(N)=O
[1]
  Relative potency: 0.0042
[2]
  ED50: >0.001 M/kg

## C[C@H](N)C(=O)N[C@H](C)C(=O)N[C@@H](Cc1ccccc1)C(=O)NCC(=O)N[C@@H](Cc1ccc(O)cc1)C(=O)N1CCC[C@H]1C(=O)N[C@@H](CO)C(N)=O
[1]
  Relative potency: 0.0017
[2]
  ED50: 6.1e-05 M/kg

## C[C@@H](NC(=O)[C@@H](N)Cc1ccccc1)C(=O)N[C@@H](Cc1ccccc1)C(=O)NCC(=O)N[C@@H](Cc1ccc(O)cc1)C(=O)N1CCC[C@H]1C(=O)N[C@@H](CO)C(N)=O
[1]
  Relative potency: 0.026
[2]
  ED50: 1.55e-05 M/kg

## COc1ccc(C[C@H](N)C(=O)N[C@H](C)C(=O)N[C@@H](Cc2ccccc2)C(=O)NCC(=O)N[C@@H](Cc2ccc(O)cc2)C(=O)N2CCC[C@H]2C(=O)N[C@@H](CO)C(N)=O)cc1
[1]
  Relative potency: 40.5
[2]
  ED50: 6e-05 M/kg

## CC(=O)N[C@@H](Cc1ccc(O)cc1)C(=O)N[C@H](C)C(=O)N[C@@H](Cc1ccccc1)C(=O)NCC(=O)N[C@@H](Cc1ccc(O)cc1)C(=O)N1CCC[C@H]1C(=O)N[C@@H](CO)C(N)=O
[1]
  Relative potency: 0.0044
[2]
  ED50: >0.001 M/kg

## CSCC[C@H](NC(=O)[C@H](Cc1ccccc1)NC(=O)CNC(=O)[C@@H](C)NC(=O)[C@@H](N)Cc1ccc(O)cc1)C(N)=O
[3]
  pIC50: 8.60
[1]
  Relative potency: 30

## C[C@@H](NC(=O)[C@@H](N)Cc1ccc(O)cc1)C(=O)N[C@@H](Cc1ccccc1)C(=O)NCC(=O)N[C@@H](Cc1ccc(O)cc1)C(=O)N1CCC[C@H]1C(=O)N[C@@H](CO)C(N)=O [DERMORPHIN]
[3]
  pIC50: 10.28
[1]
  Relative potency: 1440
[2]
  ED50: 9.5e-07 M/kg

## CN1CC[C@]23c4c5ccc(O)c4O[C@H]2[C@@H](O)C=C[C@H]3[C@H]1C5 [MORPHINE]
[2]
  ED50: 1.7e-06 M/kg
